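In this assay, cells in 96-well plates receive the compound at five concentrations for 48 hours. Endpoints are linearly interpolated between the surrounding concentrations. GI50 is the concentration that inhibits growth by half. TGI: total growth inhibition.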
Legend:
Experiment in all cases: DTP human tumour cell line panel, 48 h
MDA-MB-435 = test system: MDA-MB-435
SK-OV-3 ovarian = test system: SK-OV-3 ovarian
HOP-92 NSCLC = test system: HOP-92 NSCLC
M14 melanoma = test system: M14 melanoma
NCI-H460 lung = test system: NCI-H460 lung
MALME-3M melanoma = test system: MALME-3M melanoma
LOX IMVI melanoma = test system: LOX IMVI melanoma
MDA-MB-231 breast = test system: MDA-MB-231 breast
IGROV1 ovarian = test system: IGROV1 ovarian
ACHN renal = test system: ACHN renal

| SMILES | GI50 (MDA-MB-435) | TGI (MDA-MB-435) | GI50 (SK-OV-3 ovarian) | TGI (SK-OV-3 ovarian) | GI50 (HOP-92 NSCLC) | TGI (HOP-92 NSCLC) | GI50 (M14 melanoma) | TGI (M14 melanoma) | GI50 (NCI-H460 lung) | TGI (NCI-H460 lung) | TGI (MALME-3M melanoma) | TGI (LOX IMVI melanoma) | TGI (MDA-MB-231 breast) | TGI (IGROV1 ovarian) | TGI (ACHN renal) | GI50 (MALME-3M melanoma) | GI50 (LOX IMVI melanoma) | GI50 (MDA-MB-231 breast) | GI50 (IGROV1 ovarian) | GI50 (ACHN renal) |
| --- | --- | --- | --- | --- | --- | --- | --- | --- | --- | --- | --- | --- | --- | --- | --- | --- | --- | --- | --- | --- |
| Cc1ccc(N(CC(=O)Nc2ccc(S(=O)(=O)N3CCC(N4CCCC4)CC3)cc2)S(=O)(=O)c2ccc(Cl)cc2)cc1 | 1690 nM | 3.14 µM | 1820 nM | 3.29 µM | 1190 nM | 2.71 µM | 1710 nM | 3.39 µM | 1750 nM | 3.43 µM | – | – | – | – | – | – | – | – | – | – |
| O=C1Nc2ccc(Cl)cc2/C1=C\c1c(Cl)nc2sccn12 | – | 3.22 µM | – | > 100 µM | – | > 100 µM | – | > 100 µM | – | – | > 100 µM | > 100 µM | > 100 µM | > 100 µM | > 100 µM | – | – | – | – | – |
| C[N+]1(CCCl)CC[N+](C)(CCCl)CC1 (configuration not stated) | – | > 100 µM | – | > 100 µM | – | – | – | > 100 µM | – | > 100 µM | > 100 µM | > 100 µM | > 100 µM | > 100 µM | > 100 µM | – | – | – | – | – |
| CCOC(=O)CC1(c2cccc3ccccc23)OC(=O)c2ccccc21 (configuration not stated) | – | – | – | > 100 µM | – | – | – | – | – | > 100 µM | 96.2 µM | > 100 µM | – | > 100 µM | > 100 µM | – | – | – | – | – |
| O=C(Nc1ccc(-n2ccc3c(NC(=O)c4ccccc4)ncnc32)cc1)Nc1cccc(Cl)c1Cl | 1530 nM | 8.64 µM | – | – | 847 nM | 2.48 µM | 973 nM | 2.11 µM | – | – | 4.13 µM | 2.04 µM | 3.05 µM | 3.39 µM | 4.06 µM | 1040 nM | 763 nM | 1020 nM | 1060 nM | 1350 nM |
| O=C(O)CC1NCc2cc3ccccc3nc21 (configuration not stated) | – | > 100 µM | – | > 100 µM | – | > 100 µM | – | > 100 µM | – | > 100 µM | > 100 µM | > 100 µM | > 100 µM | > 100 µM | > 100 µM | – | – | – | – | – |
| O=C(O)/C(Cc1ccc([N+](=O)[O-])cc1)=N\O | – | > 100 µM | – | > 100 µM | – | > 100 µM | – | > 100 µM | – | > 100 µM | > 100 µM | > 100 µM | > 100 µM | > 100 µM | > 100 µM | – | – | – | – | – |
| CC(=O)NC1=C[C@@H]([C@H]2COC(C)(C)O2)OC1=O | – | – | – | > 100 µM | – | > 100 µM | – | – | – | > 100 µM | > 100 µM | > 100 µM | – | > 100 µM | – | – | – | – | – | – |
| CC(C)C(N)=O | – | – | – | > 5000 µM | – | > 5000 µM | – | > 5000 µM | – | > 5000 µM | > 5000 µM | > 5000 µM | – | > 5000 µM | > 5000 µM | – | – | – | – | – |
| C=C(OC1C(C)=C2C(C1OC(=O)CCCCCCC)C(C)(OC(C)=O)CC(OC(=O)CCC)C1(O)C2OC(=O)C1(C)O)/C(C)=C/C (configuration not stated) | – | – | – | 16.9 µM | – | 3.09 µM | – | – | < 0.1 nM | 0.046 µM | 0.131 µM | – | – | 11 µM | – | 0.907 nM | < 0.1 nM | – | – | – |
| CCCCCCCCCCCCOCCCOP(=O)([O-])OCC[N+](C)(C)C | – | > 70 µM | – | > 100 µM | – | 52.8 µM | – | 98.2 µM | – | > 70 µM | > 84.4 µM | 59.8 µM | 40.1 µM | 25.6 µM | > 80.2 µM | – | – | – | – | – |
| COC(=O)c1cnc(Cl)cn1 | – | > 100 µM | – | > 100 µM | – | > 100 µM | – | > 100 µM | – | > 100 µM | > 100 µM | > 100 µM | > 100 µM | 97.1 µM | > 100 µM | – | – | – | – | – |
| Nc1nc(N)c2cc(NCc3ccc(Cl)c(Cl)c3)ccc2n1 | 1110 nM | 2.4 µM | – | – | 348 nM | 1.75 µM | 841 nM | 2.16 µM | – | – | – | – | 2.58 µM | – | 2.58 µM | – | – | 1300 nM | – | 1310 nM |

— PubChem BioAssay (NCI)
